What is called IC50 is the concentration needed to halve the response being measured. Read a high IC50 as lower potency.

These results are taken from patent publication US7855198B2, “Benzamide derivative or salt thereof” (Astellas Pharma Inc., priority 2003, dated 2010).

One test deals with T1, human VR1 (Homo sapiens, UniProt Q8NER1).
T1 construct: A full-length cDNA encoding human VR1 was obtained by the following method; expressed in transfected cells; membrane preparation
Description: Receptor binding assay ([3H]RTX) using membranes of VR1 stably expressing cell. As to conditions: [3H]RTX binding, VR1/HEK293 membrane preparation. As to the method:
A full-length cDNA encoding human VR1 was obtained by the following method. First, human brain mRNA was reverse transcribed using a reverse transcriptase to synthesize a first strand cDNA. Then, using the first strand cDNA as a template, PCR according to Hot Start method was carried out using Taq DNA polymerase. The above PCR was carried out by first conducting thermal denaturation of 98° C. (1 min) and then repeating a cycle consisting of 98° C. (15 sec)/63° C. (30 sec)/72° C. (3 min) 35 times using an oligonucleotide consisting of a base sequence of 424th to 443rd in a known human VR1 cDNA sequence (Genbank AJ277028.1) as a sense primer and an oligonucleotide consisting of a complimentary sequence of a base sequence of 3082nd to 3100th as an antisense primer.
An amplified DNA fraction was cloned using pCR-XL-TOPO vector (TOPO XL PCR Cloning Kit; Invitrogen, USA). The resulting plasmid DNA was digested with a restriction enzyme EcoRI to isolate human VR1-cDNA alone, which was then integrated into pcDNA3.1(+) plasmid (Invitrogen, USA). The above genetic engineering operations were carried out in accordance with known methods (Sambrook, J. et al, Molecular Cloning—A Laboratory Manual”, Cold Spring Harbor Laboratory Press, NY, 2001) and directions attached to individual reagents.
Next, the resulting pcDNA3.1-VR1 was transduced into HEK293 cells or CHO-KL cells. VR1/HEK293 cells were selected using a DMEM medium (Invitrogen, USA) containing 10% FBS, 100 μg/ml streptomycin, 100 U/ml penicillin, and 400 μg/ml G418 and VR1/CHO cells were selected using a HumF12 medium (Invitrogen, USA) containing 10% FBS, 100 μg/ml streptomycin, 100 U/ml penicillin, and 400 μg/ml G418 to prepare receptor stably expressing cell lines. The receptor stably expressing cells were subcultured in respective above media.
After the above VR1/HEK293 cells were cultured in glass dishes in a large quantity, the medium was removed and cells were scraped up with adding ice-cooled PBS. They were centrifuged at 1,000 rpm at 4° C. for 10 minutes. After a buffer for homogenization (25 mM Tris-HCl, 220 mM sucrose, pH 7.4) was added to the resulting sediment and the whole was homogenized, it was centrifuged at 2,200 rpm at 4° C. for 10 minutes. The resulting supernatant was centrifuged at 30,000×g at 4° C. for 20 minutes and an operation of adding 25 mM Tris-HCl, pH 7.4 to the resulting sediment and centrifuging it at 30,000×g at 4° C. for 20 minutes was repeated twice. The resulting sediment was suspended in 25 mM Tris-HCl, pH 7.4 and protein concentration was determined using a protein assay staining solution (Bio Rad, USA). The membrane preparation thus prepared was stored at −80° C.
The test was carried out by modifying the method of [Neurosci. 57: 747-757 (1993)]. Assay buffer (25 mM Tris-HCl, 0.025% BSA, pH 7.4) (147 μl), 3 μl of a test compound, 50 μl of [^3H]RTX (about 50,000 dpm; Perkin-Elmer Life Science, USA), 100 μl of the above membrane preparation (protein amount of about 25 μg) were mixed and incubated at 37° C. for 60 minutes, and then the whole was incubated on ice for 10 minutes. An ice-cooled […] (AGP; Sigma) was added in an amount of 200 μg/50 μl, followed by further 5 minutes of incubation. The completion of the incubation was effected by rapid filtration of the mixture using a GF/B filter (Perkin-Elmer Life Science, USA). After the filter was washed with ice-cooled 25 mM Tris-HCl buffer (pH 7.4) seven times, radioactivity of the filter was measured by means of a liquid scintillation counter (2500TR; Packard, USA). With regard to a specific binding, of the total binding amount of [^3H]RTX and membrane fractions of VR1 receptor stably expressing cell, a portion substituted by 1 μM RTX was regarded as a specific binding derived from VR1 receptor. Evaluation of the test compound was conducted as follows. […]

Test [1] deals with paw-licking action induced by capsaicin. Nature of the test: Capsaicin test (paw-licking action). Format: in vivo. The settings on record: mouse, oral administration 30 mg/kg, 45 minutes before capsaicin; read-out: Inhibition ratio (%). As to the method:
The test was carried out in accordance with [Neuropharmacol. 31: 1279-1285 (1992)]. When 1.6 μg of capsaicin was administered to the planta of a mouse (ddY, male, 4- to 5-weeks old), a paw-licking action is induced. By measuring a time of expressing paw-licking action during 5 minutes after the administration, an inhibitory effect on pain behavior was evaluated. A test compound was administered intraperitoneally 30 minutes before the capsaicin administration or administered orally 45 minutes before the capsaicin administration. Evaluation of the test compound was conducted by determining each inhibition ratio in a test compound-administered group when the time of expressing paw-licking action in a vehicle-administered group was regarded as 100%.

Structures can show the parent of a compound that is named as a salt.

T1 sequence (Q8NER1 whole entry): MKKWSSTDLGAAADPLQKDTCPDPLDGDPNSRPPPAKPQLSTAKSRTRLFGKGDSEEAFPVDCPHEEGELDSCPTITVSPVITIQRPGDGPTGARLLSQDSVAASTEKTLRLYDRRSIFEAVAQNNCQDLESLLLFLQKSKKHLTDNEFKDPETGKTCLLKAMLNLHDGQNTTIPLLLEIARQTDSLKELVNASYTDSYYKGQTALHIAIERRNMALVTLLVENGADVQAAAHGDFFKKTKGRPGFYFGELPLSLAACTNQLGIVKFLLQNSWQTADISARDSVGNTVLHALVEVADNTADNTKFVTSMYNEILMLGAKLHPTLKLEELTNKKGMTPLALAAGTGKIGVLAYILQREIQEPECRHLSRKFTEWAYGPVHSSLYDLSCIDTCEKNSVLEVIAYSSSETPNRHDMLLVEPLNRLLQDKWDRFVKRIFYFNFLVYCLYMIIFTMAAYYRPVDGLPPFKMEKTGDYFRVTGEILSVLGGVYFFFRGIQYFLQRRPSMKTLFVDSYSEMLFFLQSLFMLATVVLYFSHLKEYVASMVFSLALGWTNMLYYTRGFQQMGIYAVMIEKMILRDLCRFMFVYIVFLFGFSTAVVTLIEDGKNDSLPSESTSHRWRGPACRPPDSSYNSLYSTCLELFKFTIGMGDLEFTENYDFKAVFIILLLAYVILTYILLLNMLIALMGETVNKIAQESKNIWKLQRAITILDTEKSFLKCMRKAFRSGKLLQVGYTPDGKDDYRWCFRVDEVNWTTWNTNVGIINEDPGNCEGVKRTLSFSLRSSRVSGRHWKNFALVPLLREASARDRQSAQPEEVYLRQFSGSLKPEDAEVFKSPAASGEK

`COc1cccc(NC(=O)c2ccc(-c3ccccc3)c(CN3CCCCC3)c2)c1` [Example 1, N-(3-methoxyphenyl)-2-(piperidin-1-ylmethyl)biphenyl-4-carboxamide hydrochloride]: the IC50 at human VR1 is at most 1000 nM.

`O=C(Nc1ccc2scnc2c1)c1ccc(-c2ccccc2)c(CN2CCCCC2)c1` [Example 7] came in with an IC50 at human VR1 of at most 1000 nM.

The compound `O=C(Nc1ccc2scnc2c1)c1ccc(-c2ccccc2)c(CN2CCOCC2)c1` [Example 21] displayed a concentration for half-maximal inhibition (IC50) on human VR1 of at most 1000 nM.

Regarding `CC(C)N(Cc1cc(C(=O)Nc2ccc3scnc3c2)ccc1-c1ccccc1)C1CCCCC1` [Example 33], the IC50 at human VR1 was at most 1000 nM. The inhibition in vivo at 30 mg/kg in test [1] was 66%.

Take `O=C1CCc2ccc(NC(=O)c3ccc(-c4ccccc4)c(CN4CCCCC4)c3)cc2N1` [Example 60]: the IC50 at human VR1 was at most 1000 nM.

In turn, `CN(C)c1ccc(NC(=O)c2ccc(-c3ccccc3)c(CN3CCCCC3)c2)cn1` [Example 71] gave a 50% inhibitory concentration (IC50) at human VR1 of at most 1000 nM.

For `CN1C(=O)CCc2ccc(NC(=O)c3ccc(-c4ccccc4)c(CN4CCCCC4)c3)cc21` [Example 78], on human VR1, the IC50 is at most 1000 nM. In test [1], the inhibition in vivo at 30 mg/kg turned out to be 76%.

`CC1Oc2ccc(NC(=O)c3ccc(-c4ccccc4)c(CN4CCCCC4)c3)cc2N(C)C1=O` (stereo not drawn) [Example 85] registered a half-inhibitory concentration (IC50) on human VR1 of at most 1000 nM. Besides, the inhibition in vivo at 30 mg/kg in test [1] turned out to be 86%.

At human VR1, `CC1(C)C(=O)Nc2cc(NC(=O)c3ccc(-c4ccccc4)c(CN4CCCCC4)c3)ccc21` [Example 87] showed an IC50 of at most 1000 nM. In addition, the inhibition in vivo at 30 mg/kg in test [1] was determined as 67%.

For `O=C(Nc1ccc2scnc2c1)c1ccc(-c2ccccc2)c(CN2CCC(F)CC2)c1` [Example 110], at human VR1, the IC50 was at most 1000 nM.

On human VR1, `CC1CCN(C2CCCN(Cc3cc(C(=O)Nc4ccc5c(c4)NC(=O)C(C)O5)ccc3-c3ccccc3)C2)CC1` (stereo not drawn) [Example 122] yielded an IC50 of at most 1000 nM.

`CCN(Cc1cc(C(=O)Nc2ccc3c(c2)NC(=O)C(C)O3)ccc1-c1ccccc1)CC(C)(C)O` (stereo not drawn) [Example 123]: the half-inhibitory concentration (IC50) at human VR1 was at most 1000 nM. For the same compound, in test [1], the inhibition in vivo at 30 mg/kg turned out to be 69%.

Regarding `Cn1c(=O)ccc2ccc(NC(=O)c3ccc(-c4ccccc4)c(CN4CCCCC4)c3)cc21` [Example 129], the half-maximal inhibitory concentration (IC50) on human VR1 was at most 1000 nM. In test [1], the inhibition in vivo at 30 mg/kg came to 91%.

`Cc1cc2ccc(NC(=O)c3ccc(-c4ccccc4)c(CN4CCCCC4)c3)cc2[nH]c1=O` [Example 130] had an IC50 at human VR1 of at most 1000 nM. For the same compound, the inhibition in vivo at 30 mg/kg in test [1] is 62%.

For the compound `CCN(CC)Cc1cc(C(=O)Nc2cc3c(c(C(F)(F)F)c2)CC(=O)N3)ccc1-c1ccccc1` [Example 143], the 50% inhibitory concentration (IC50) on human VR1 was at most 1000 nM.

On human VR1, `CN1C(=O)CCc2ccc(NC(=O)c3ccc(-c4cccs4)c(CN4CCCCC4)c3)cc21` [Example 163] had an IC50 of at most 1000 nM.

`CCN(Cc1cc(C(=O)Nc2ccc3c(c2)N(C)C(=O)CC3)ccc1-c1ccccc1)C1CCOCC1` [Example 170] yielded an IC50 at human VR1 of at most 1000 nM. In test [1], the inhibition in vivo at 30 mg/kg came out at 68%.

In turn, `CCN(Cc1cc(C(=O)Nc2ccc3c(c2)N(C)C(=O)CC3)ccc1-c1ccccc1)C1CCSCC1` [Example 181] yielded an IC50 at human VR1 of at most 1000 nM.

Turning to `CC(C)CN(CCN1CCCCC1)Cc1cc(C(=O)Nc2ccc3c(c2)NC(=O)C(C)O3)ccc1-c1ccccc1` (stereo not drawn) [Example 195], at human VR1, the IC50 was at most 1000 nM.
